# Measured values as given in patent US6753154B1, “Human AZU-1 gene, variants thereof and expressed gene products” (The Regents of the University of California, priority 1998, dated 2004).
# System: T4-2 cells
# Assay: Reversion assay in 3D rBM cultures with Northern blot of AZU-1 message
# Format: cell-based, human
# Details: 3D rBM culture; AIIB2 100 μg/ml ascites protein, Tyrphostin AG 1478 100 nM
# From the text: To test this, total RNA was extracted from 3D rBM cultures of S1 cells and T4-2 cells treated with or without inhibitors of either β1 integrin (mAb AIIB2) or EGFR (Tyrphostin). Results are seen in FIG. 18. […] By virtue of its connections with β1 integrin and EGFR, AZU-1 may provide essential cellular information that dictates cellular structure and phenotype.
# Total RNA was extracted from cells cultured as monolayers or in 3D rBM or cells from normal tissues or in situ carcinoma with TRIzol reagent (Life Technologies, Inc. Grand Island, N.Y.). For Northern blots, total RNA (20 μg/lane) was resolved on denaturing agarose gels and transferred to Hybond-N^+ membranes (Amersham). Resulting blots were hybridized with ^32P-labeled cDNA probes and analyzed by autoradiography. A GAPDH probe was used to normalize variations in loading.
# The β1-integrin function-blocking mAb AIIB2 (C. Damsky, UCSF) was introduced into the cell-embedded substratum at a concentration of 100 μg/ml ascites protein (which corresponds to 4-10 μg/ml purified rat IgG1) at the time of Matrigel gelation. Tyrphostin AG 1478 (Calbiochem) dissolved in dimethyl sulfoxide was added to the medium at a concentration of 100 nM on alternate days. Control cultures were treated with […] and vehicle only for AIIB2 antibody and inhibitor experiments, respectively.
smiles,measurement,value
"COc1cc2ncnc(Nc3cccc(Cl)c3)c2cc1OC [Tyrphostin, Tyrphostin AG 1478]",AZU-1 message levels in treated T4-2 cells (Northern blot),restored to S1-like levels
same,phenotype of treated T4-2 cells in 3D rBM,phenotypically reverted
